Patent US9890171B2, “Aldosterone synthase inhibitors” (Boehringer Ingelheim International GmbH, priority 2014, dated 2018)

Target: aldosterone synthase (CYP11B2) (Macaca fascicularis, UniProt A0A2K5UPL9)
Assay: aldosterone synthase inhibition assay
Type: biochemical, cynomolgus monkey
Details: cynomolgus adrenal gland mitochondria, 2 μM corticosterone, aldosterone quantified by mass spectrometry
Experimental: The aldosterone synthase inhibition assay employs cynomolgus adrenal gland mitochondria as the source of aldosterone synthase (CYP11B2). Mitochondria are prepared from frozen cynomolgus monkey adrenal glands according to Method A described in by J. D. McGarry et al. (Biochem. J., 1983, 214, 21-28), with a final resuspension in the AT buffer described in R. Yamaguchi et al. (Cell Death and Differentiation, 2007, 14, 616-624), frozen as aliquots in liquid nitrogen and stored at −80° C. until use.
Assays are performed in 96-well format in a final volume of 60 μL/well, containing 100 mM potassium phosphate, pH 7.4, 1% (v/v) DMSO, and additionally, 2 μM of corticosterone and […] of mitochondrial protein. Reactions are started by the addition of NADPH to 1 mM and allowed to proceed for 60-90 minutes at 37° C. Reactions are terminated by the addition of […]. One hundred microliters are then transferred to a glass filter plate and centrifuged at 570×g for 5 minutes and the filtrate is collected. Reaction product aldosterone is quantified by mass spectrometry. To determine the assay blank value (0% activity), NADPH is omitted from some reactions.
Dose dependent inhibition is quantified by the inclusion of compound at various concentrations. Maximum activity (100%) is defined by reactions containing NADPH, but without compound. Activities at each concentration are expressed as a percentage of the maximum activity (y-axis) and plotted against concentration of compound (x-axis) and the concentration corresponding to 50% activity (IC50) determined using the XLFit curve-fitting program using a 4-parameter logistic model.

Chain of aldosterone synthase (CYP11B2) (A0A2K5UPL9 1-503): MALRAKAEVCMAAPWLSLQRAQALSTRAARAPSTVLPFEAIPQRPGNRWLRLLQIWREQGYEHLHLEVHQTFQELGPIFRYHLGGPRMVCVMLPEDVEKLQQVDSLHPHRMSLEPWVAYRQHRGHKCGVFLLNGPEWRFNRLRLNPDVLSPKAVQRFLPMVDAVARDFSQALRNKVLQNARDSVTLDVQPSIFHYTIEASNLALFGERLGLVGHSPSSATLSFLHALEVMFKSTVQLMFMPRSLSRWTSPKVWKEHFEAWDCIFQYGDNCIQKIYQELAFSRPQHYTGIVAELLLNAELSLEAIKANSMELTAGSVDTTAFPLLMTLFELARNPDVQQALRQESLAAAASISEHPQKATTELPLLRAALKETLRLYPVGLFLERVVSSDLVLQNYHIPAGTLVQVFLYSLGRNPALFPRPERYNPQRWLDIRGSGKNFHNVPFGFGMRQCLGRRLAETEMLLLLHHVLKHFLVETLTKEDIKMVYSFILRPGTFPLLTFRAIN

IC50	SMILES
55.7 nM	OC1COCc2c(-c3ccc4ocnc4c3)cncc21 (single isomer, unassigned) [Compound 49, 8-Benzooxazol-5-yl-3,4-dihydro-1H-pyrano[4,3-c]pyridin-4-ol]
215 nM	CCS(=O)(=O)NC1COCc2c(-c3ccc4c(cnn4C)c3)cncc21 (single isomer, unassigned) [Compound 82, Ethanesulfonic acid [8-(1-methyl-1H-indazol-5-yl)-3,4-dihydro-1H-pyrano[4,3-c]pyridin-4-yl]-amide]
19 nM	Cn1nnc2ccc(-c3cncc4c3COC3(CC3)C4O)cc21 (single isomer, unassigned) [Compound 198, 8-(3-methylbenzotriazol-5-yl)spiro[1,4-dihydropyrano[4,3-c]pyridine-3,1′-cyclopropane]-4-ol]
195 nM	Cn1ncc2cc(-c3cncc4c3COCC4O)ccc21 (single isomer, unassigned) [Compound 23, 8-(1-Methyl-1H-indazol-5-yl)-3,4-dihydro-1H-pyrano[4,3-c]pyridin-4-ol]
21.6 nM	Cn1ncc2c(F)cc(-c3cncc4c3COCC4(C)O)cc21 (single isomer, unassigned) [Compound 175, 8-(4-Fluoro-1-methyl-1H-indazol-6-yl)-4-methyl-3,4-dihydro-1H-pyrano[4,3-c]pyridin-4-ol]
38.9 nM	Cn1ncc2ccc(-c3cncc4c3C(C)(O)COC4)cc21 (single isomer, unassigned) [Compound 179, 4-Methyl-5-(1-methyl-1H-indazol-6-yl)-3,4-dihydro-1H-pyrano[3,4-c]pyridin-4-ol]
797 nM	CCS(=O)(=O)NC1COCc2c(-c3ccc4onc(C)c4c3)cncc21 (single isomer, unassigned) [Compound 159, Ethanesulfonic acid [8-(3-methyl-benzo[d]isoxazol-5-yl)-3,4-dihydro-1H-pyrano[4,3-c]pyridin-4-yl]-amide]
9730 nM	O=C1NCCOc2cc(-c3cncc4c3COCC4O)ccc21 (single isomer, unassigned) [Compound 146, 8-(4-Hydroxy-3,4-dihydro-1H-pyrano[4,3-c]pyridin-8-yl)-3,4-dihydro-2H-benzo[f][1,4]oxazepin-5-one]
48.6 nM	Cn1ncc2ccc(-c3cncc4c3COCC4O)cc21 (single isomer, unassigned) [Compound 29, 8-(1-Methyl-1H-indazol-6-yl)-3,4-dihydro-1H-pyrano[4,3-c]pyridin-4-ol]
22.8 nM	O=c1ccc2cc(-c3cncc4c3COCC4O)ccc2o1 (single isomer, unassigned) [Compound 125, 6-(4-Hydroxy-3,4-dihydro-1H-pyrano[4,3-c]pyridin-8-yl)-chromen-2-one]
118 nM	OC1COCc2c(-c3ccc4c(c3)C(F)(F)CCO4)cncc21 (single isomer, unassigned) [Compound 142, 8-(4,4-Difluoro-chroman-6-yl)-3,4-dihydro-1H-pyrano[4,3-c]pyridin-4-ol]
18 nM	CN(C)C1COCc2c(-c3ccc4cnn(C)c4c3)cncc21 (single isomer, unassigned) [Compound 185, Dimethyl-[8-(1-methyl-1H-indazol-6-yl)-3,4-dihydro-1H-pyrano[4,3-c]pyridin-4-yl]-amine]
17.4 nM	OC1COCc2c(-c3ccc4[nH]ccc4c3)cncc21 (single isomer, unassigned) [Compound 48, 8-(1H-Indol-5-yl)-3,4-dihydro-1H-pyrano[4,3-c]pyridin-4-ol]
128 nM	Cc1ncc2ccc(-c3cncc4c3COC3(CC3)C4O)cn12 (single isomer, unassigned) [Compound 88, 8-(3-methylimidazo[1,5-a]pyridin-6-yl)spiro[1,4-dihydropyrano[4,3-c]pyridine-3,1′-cyclopropane]-4-ol]
22 nM	OC1COCc2c(-c3ccc4c(c3)COCC4(F)F)cncc21 (single isomer, unassigned) [Compound 199, 8-(4,4-Difluoro-isochroman-7-yl)-3,4-dihydro-1H-pyrano[4,3-c]pyridin-4-ol]

The next lines start with the compound.

SMILES	IC50
Cn1nnc2ccc(-c3cncc4c3COC3(CC3)C4O)cc21 (single isomer, unassigned) [Compound 197, 8-(3-methylbenzotriazol-5-yl)spiro[1,4-dihydropyrano[4,3-c]pyridine-3,1′-cyclopropane]-4-ol]	18 nM
NC(=O)N1CCCc2cc(-c3cncc4c3COCC4O)cnc21 (single isomer, unassigned) [Compound 164, 6-(4-Hydroxy-3,4-dihydro-1H-pyrano[4,3-c]pyridin-8-yl)-3,4-dihydro-2H-[1,8]naphthyridine-1-carboxylic acid amide]	41.5 nM
NC(=O)N1CCCc2cc(-c3cncc4c3C(O)COC4)cnc21 (single isomer, unassigned) [Compound 162, 6-(4-Hydroxy-3,4-dihydro-1H-pyrano[3,4-c]pyridin-5-yl)-3,4-dihydro-2H-[1,8]naphthyridine-1-carboxylic acid amide]	71.4 nM
NC(=O)c1cccc2cc(-c3cncc4c3COCC4O)cnc12 (single isomer, unassigned) [Compound 104, 3-(4-Hydroxy-3,4-dihydro-1H-pyrano[4,3-c]pyridin-8-yl)-quinoline-8-carboxylic acid amide]	81 nM
CCC(=O)NC1COCc2c(-c3cc(F)c4cnn(C)c4c3)cncc21 (single isomer, unassigned) [Compound 150, N-[8-(4-Fluoro-1-methyl-1H-indazol-6-yl)-3,4-dihydro-1H-pyrano[4,3-c]pyridin-4-yl]-propionamide]	17.4 nM
Cc1ncc2ccc(-c3cncc4c3COCC4O)cn12 (single isomer, unassigned) [Compound 86, 8-(3-Methyl-imidazo[1,5-a]pyridin-6-yl)-3,4-dihydro-1H-pyrano[4,3-c]pyridin-4-ol]	494 nM
O=C1NCCc2cc(-c3cncc4c3COCC4O)ccc21 (single isomer, unassigned) [Compound 120, 6-(4-Hydroxy-3,4-dihydro-1H-pyrano[4,3-c]pyridin-8-yl)-3,4-dihydro-2H-isoquinolin-1-one]	790 nM
Cn1nnc2ccc(-c3cncc4c3COCC4O)cc21 (single isomer, unassigned) [Compound 14, 8-(3-Methyl-3H-benzotriazol-5-yl)-3,4-dihydro-1H-pyrano[4,3-c]pyridin-4-ol]	15.7 nM
Cc1ncc2ccc(-c3cncc4c3COCC4O)cn12 (single isomer, unassigned) [Compound 87, 8-(3-Methyl-imidazo[1,5-a]pyridin-6-yl)-3,4-dihydro-1H-pyrano[4,3-c]pyridin-4-ol]	123 nM
O=C1CCOc2cc(-c3cncc4c3COCC4O)ccc21 (single isomer, unassigned) [Compound 123, 7-(4-Hydroxy-3,4-dihydro-1H-pyrano[4,3-c]pyridin-8-yl)-chroman-4-one]	16.3 nM
Cn1cc(-c2cncc3c2COCC3O)cn1 (single isomer, unassigned) [Compound 32, 8-(1-Methyl-1H-pyrazol-4-yl)-3,4-dihydro-1H-pyrano[4,3-c]pyridin-4-ol]	2700 nM
CCC(=O)NC1COCc2c(-c3ccc4c(c3)CC(=O)N4C)cncc21 (single isomer, unassigned) [Compound 58, N-[8-(1-Methyl-2-oxo-2,3-dihydro-1H-indol-5-yl)-3,4-dihydro-1H-pyrano[4,3-c]pyridin-4-yl]-propionamide]	130 nM
Cn1ncc2c1C=C(c1cncc3c1COCC3O)CC2 (single isomer, unassigned) [Compound 189, 8-(1-Methyl-4,5-dihydro-1H-indazol-6-yl)-3,4-dihydro-1H-pyrano[4,3-c]pyridin-4-ol]	67 nM
CCS(=O)(=O)NC1COCc2c(-c3ccc4c(c3)CCC4=O)cncc21 (single isomer, unassigned) [Compound 157, Ethanesulfonic acid [8-(1-oxo-indan-5-yl)-3,4-dihydro-1H-pyrano[4,3-c]pyridin-4-yl]-amide]	46 nM
CCS(=O)(=O)NC1COCc2c(-c3ccc4c(c3)CCC4O)cncc21 (stereo not drawn) [Compound 184, Ethanesulfonic acid [8-(1-hydroxy-indan-5-yl)-3,4-dihydro-1H-pyrano[4,3-c]pyridin-4-yl]-amide]	124 nM
CC(C)Oc1nc(-c2cncc3c2COCC3O)cs1 (single isomer, unassigned) [Compound 8, 8-(2-Isopropoxy-thiazol-4-yl)-3,4-dihydro-1H-pyrano[4,3-c]pyridin-4-ol]	3700 nM
CCC(=O)NC1COCc2c(-c3ccc4nnn(C)c4c3)cncc21 (single isomer, unassigned) [Compound 60, N-[8-(3-Methyl-3H-benzotriazol-5-yl)-3,4-dihydro-1H-pyrano[4,3-c]pyridin-4-yl]-propionamide]	75.5 nM
CCC(=O)NC1COCc2c(-c3ccc4c(cnn4C)c3)cncc21 (single isomer, unassigned) [Compound 72, N-[8-(1-Methyl-1H-indazol-5-yl)-3,4-dihydro-1H-pyrano[4,3-c]pyridin-4-yl]-propionamide]	2300 nM
